Experiments:
[1] = system: total Htt and acetyl-Htt level in Neuro2a cells; assay: Proteasome and autophagy inhibitors in Neuro2a cells transfected with Htt590-97Q (western blot); format: cell-based; details: lactacystin 10 μM or 3-methyladenine 10 mM for 12 hrs
Description: Cell Culture and Transfection. Neuro2a, STHdh^Q7/Q7, and COS-7 cells were transfected using Lipofectamine 2000. For HDAC inhibition, TSA (1 μM) and NAM (5 mM) were applied 6 hrs and 16 hrs, respectively, prior to harvest. Unless indicated otherwise, cells were harvested 24 hrs after transfection. For the experiments with proteasome and autophagy inhibitors, Neuro2a cells were treated with lactacystin (10 μM) or 3-methyladenine (10 mM) for 12 hrs. For assessment of LC3 conversion, immortalized striatal cells (STHdh^Q7/Q7) were cultured as described (29), transfected for 48 hrs and treated with TSA (4 μM) and NAM (5 mM) 15 hrs prior to harvest.
To examine which of these pathways may be responsible for clearance of acetylated Htt polypeptide, Neuro2a cells were transfected with Htt590-97Q and treated with inhibitors of proteasome or autophagy. […] In order to further examine whether acetylated Htt polypeptide leads to activation of macroautophagy, LC3 conversion was assessed (17, 18). LC3, a mammalian homologue of yeast Atg8, is a diffusely distributed protein that upon activation by mammalian Atg7 undergoes posttranslational modification resulting in the product LC3-II, which firmly associates with the autophagosomal membrane. The amount of LC3-II, which migrates faster than LC3-I on SDS-PAGE, provides a reliable measure of autophagic activity (17). In order to assess autophagic activity in relation to Htt acetylation, immortalized striatal cells (STHdh^Q7/Q7) were transfected with Htt590-97Q or acetylation-resistant Htt590-97Q-KR, treated with TSA and NAM and analyzed by western blotting with anti-LC3 antibody (FIG. 3B).

Drosophila model of HD = details: pharmacological inhibition of HDAC; cited from earlier work
C. elegans neurons = details: dose-dependent manner; cited from earlier work

## Cn1cnc(N)c2ncnc1-2 [3-methyladenine]
[1]
  acetyl-Htt level: accumulation

## O=C(CCCCCCC(=O)Nc1ccccc1)NO [SAHA, Suberoylanilide hydroxamic acid]
Drosophila model of HD
  lethality and degeneration in Drosophila model of HD: rescue the lethality and degeneration

## CC(/C=C/C(=O)NO)=C\[C@@H](C)C(=O)c1ccc(N(C)C)cc1 [TSA, trichostatin A]
C. elegans neurons
  degeneration of C. elegans neurons induced by mutant Htt: reduced the degeneration

## CC(=O)N[C@@H](CSC(=O)[C@]1([C@@H](O)C(C)C)NC(=O)[C@H](C)[C@@H]1O)C(=O)O [lactacystin]
[1]
  acetyl-Htt level: no significant effect
  total Htt level: no significant effect

— US9284366B2, “Anti-acetylated huntingtin antibodies and uses therof” (The General Hospital Corporation, priority 2006, dated 2016)
